Test [1] relates to GABAA receptor. The test is described as follows: [3H]Muscimol binding assay, rat cortex. As to conditions: 5 nM [3H]muscimol, FIG. 7. The protocol:
[^3H]Muscimol binding assay: The cortex from male Sprague-Dawley rats (160-200 g) was removed immediately after euthanizing and dissected over ice. The tissue was homogenized in 15 vol of 0.32M sucrose followed by centrifugation for 10 min at 1000× g. The supernatant was transferred to a 38 mL polycarbonate tube (Beckman Instruments, Palo Alto Calif.) and centrifuged at 20,000× g for 20 min. The membrane pellet was resuspended in 10 vol of dH2O and centrifuged at 8,000× g for 20 min. The resulting pellet was washed with dH2O once and with Na^+-free assay buffer (40 mM KH2PO4, 100 mM KCl, pH 7.4). The pellet was resuspended in 35 mL of Na^+-free assay buffer, incubated at 37° C. for thirty minutes and then centrifuged 31,000× g for twenty minutes. The final pellet was resuspended in 10 vol of Na^+-free assay buffer. Protein concentration of membrane preparations was ˜1 mg/mL by BCA reagent protein assay. Aliquots of membrane suspension (100 μL) were incubated in Na^+-free assay buffer with 5 nM [^3H]muscimol (25 Ci/mmol, New England Nuclear, Boston, Mass.) and 5 μL of dimethylsulfoxide (DMSO) or drug dissolved in DMSO. The final volume of the incubation medium was 1 mL. […] Filter-bound radioactivity was quantified by LSC after an overnight extraction. The data were evaluated by nonlinear regression to obtain IC50 and EC50 values.

The subject of test [2] is 24 hour thirsted rats. The test is described as follows: Vogel Model of Anxiety (Vogel Conflict). It counts as in vivo, rat. As to conditions: compared with Diazepam (DZP), FIG. 4. The method, then:
Adult male rats are randomly divided into groups of 6 rats/group. Animals were deprived of water overnight (24 hr). Food was freely available at time of thirsting. Thirty minutes after injection (i.p.) of test drug, positive control drug (diazepam, 1 mg/kg), or vehicle control rats are placed in a square Plexiglas box containing a stainless steel bottom connected to one side of a drinkometer circuit. At the other side of the drinkometer circuit a water bottle, placed so the drink tube extends into the Plexiglas box, is connected. When a subject drinks from the bottle the circuit is closed and an electric shock is delivered at the tube after seven licks are recorded. The number of licks in a 3 min session is recorded. Anti-anxiety agents will increase the number of shocks the animal is willing to endure to acquire water.

The test system of test [3] is GABAA receptor complex (GRC). Kind of test: [35S]TBPS binding assay, rat cortex. As to conditions: 2 nM [35S]TBPS.
The test system of test [4] is Male NSA mice. Kind of test: Mouse Light-Dark Transition Model of Anxiety. It counts as in vivo. As to conditions: compared with Diazepam (DZP), FIG. 3. The protocol: Male NSA mice (25-30 g) are used. The apparatus consists of an open-topped box divided into small and large area by a partition that has a hole at floor level. The small compartment is painted black and the large compartment white. The white compartment was illuminated with light and the black compartment with red light. The time spent in the light versus dark compartments and the number of transitions between compartments is recorded during a 5 min test session. Vehicle or test compounds are administered 30 min prior to the test. Diazepam is administered (i.p.) at 2 mg/kg as the positive control. Anti-anxiety agents will reduce the time the animals will spend in the dark compartment and increase the number of transitions between the two compartments.

Test [5] concerns the target T1, human GABAA receptors containing α1β2γ2 subunits (Homo sapiens, UniProt P14867+P18507+P47870).
T1 construct: expressed in transfected cells; host or cells: HEK cells
Kind of test: Electrophysiology Assay 2, GABAA subunit transfected HEK cells (α1β2γ2). The format is cell-based. As to conditions: expressed human α1β2γ2 receptors; versus diazepam; FIG. 2. The method, then: GABAA subunit transfected HEK cells are maintained at 37° C. and 5% CO2 using Dulbecco's Modified Eagle's Medium with L-glutamine and no sodium pyruvate (Irvine Scientific #9031, Irvine Calif.) and supplemented with 10% fetal bovine serum (Irvine Scientific #3000), 10 U/ml hygromycin B (Calbiochem #400051), and an antibiotic cocktail consisting of 100 μg/ml streptomycin sulfate, 0.25 μg/ml amphotericin B, 100 units/ml penicillin G (Gibco 15240-096, Gaithersburg Md.). Cells are passed by 2× wash with phosphate buffered saline (PBS) pH 7.4 and lifted using 1× trypsin/EDTA solution in PBS (0.5 mg/ml trypsin, 0.2 mg/ml EDTA, Irvine Scientific #9342) when confluency reaches ˜90%.
GABAA subunit transfected HEK cells are grown to ˜70% confluency on slide. Cells are transferred to a bath that is continuously perfused with extracellular saline. The extracellular medium contained 145 mM NaCl, 3 mM KCl, 1.5 mM CaCl2, 1 mM MgCl2, 5.5 mM d-glucose, and 10 mM HEPES, pH 7.4 at an osmolarity of 320-330 mosM. Recordings are performed at room temperature using the whole cell patch clamp technique. The patch pipette solution contained 147 mM N-methyl-D-glucamine hydrochloride, 5 mM CsCl, 5 mM K2ATP, 5 mM HEPES, 1 mM MgCl2, 0.1 mM CaCl2, and 1.1 mM EGTA, pH 7.2, at an osmolarity of 315 mosM. Pipette-to-bath resistance is typically 3-5 Mohms. […]

[6] abbreviates: absence or presence of 3 μM and 10 μM (+)-bicuculline, FIG. 5.

T1 sequence (P14867 28-456): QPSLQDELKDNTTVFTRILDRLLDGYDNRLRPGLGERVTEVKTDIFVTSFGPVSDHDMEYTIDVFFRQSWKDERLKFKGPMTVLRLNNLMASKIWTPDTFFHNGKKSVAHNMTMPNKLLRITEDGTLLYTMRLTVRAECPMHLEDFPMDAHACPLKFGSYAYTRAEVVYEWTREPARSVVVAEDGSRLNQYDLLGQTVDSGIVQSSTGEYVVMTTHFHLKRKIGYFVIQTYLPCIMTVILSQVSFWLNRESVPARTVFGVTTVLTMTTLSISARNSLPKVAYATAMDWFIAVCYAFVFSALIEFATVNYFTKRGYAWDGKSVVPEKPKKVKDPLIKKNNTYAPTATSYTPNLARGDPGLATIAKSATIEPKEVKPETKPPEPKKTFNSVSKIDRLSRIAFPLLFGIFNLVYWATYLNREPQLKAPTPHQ
T1 sequence (P47870 25-512 limits assumed): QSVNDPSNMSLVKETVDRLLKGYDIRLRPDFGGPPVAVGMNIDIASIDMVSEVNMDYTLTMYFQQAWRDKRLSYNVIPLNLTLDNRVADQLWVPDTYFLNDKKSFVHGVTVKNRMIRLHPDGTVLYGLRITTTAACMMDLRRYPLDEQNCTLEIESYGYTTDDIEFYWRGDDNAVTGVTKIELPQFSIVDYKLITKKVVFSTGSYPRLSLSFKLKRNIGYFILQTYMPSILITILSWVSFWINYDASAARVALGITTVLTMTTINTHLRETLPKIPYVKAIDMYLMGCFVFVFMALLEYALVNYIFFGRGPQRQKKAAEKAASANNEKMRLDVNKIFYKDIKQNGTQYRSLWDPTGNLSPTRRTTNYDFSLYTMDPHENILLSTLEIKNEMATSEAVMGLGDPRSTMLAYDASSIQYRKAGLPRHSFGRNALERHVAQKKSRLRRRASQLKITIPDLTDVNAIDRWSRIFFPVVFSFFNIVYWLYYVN
T1 sequence (P18507 40-475): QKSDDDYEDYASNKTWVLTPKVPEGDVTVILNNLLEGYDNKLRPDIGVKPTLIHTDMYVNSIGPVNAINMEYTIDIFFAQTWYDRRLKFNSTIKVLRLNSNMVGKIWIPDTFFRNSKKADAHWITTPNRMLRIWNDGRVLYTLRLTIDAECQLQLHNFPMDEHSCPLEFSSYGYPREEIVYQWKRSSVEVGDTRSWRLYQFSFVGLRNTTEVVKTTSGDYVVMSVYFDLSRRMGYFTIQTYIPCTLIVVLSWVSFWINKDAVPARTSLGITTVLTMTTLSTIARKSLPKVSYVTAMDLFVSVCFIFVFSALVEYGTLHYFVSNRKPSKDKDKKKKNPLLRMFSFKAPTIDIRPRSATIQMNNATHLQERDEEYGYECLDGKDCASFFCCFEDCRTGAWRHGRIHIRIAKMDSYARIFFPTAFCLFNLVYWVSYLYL

Consider `CCn1cc(C(=O)O)c(=O)c2cc(NC3CCCc4ccccc43)c(Cl)cc21` (stereo not shown) [compound 3, 7-chloro-1-ethyl-6-(1,2,3,4-tetrahydronaphthyl-1-amino)-4-oxo-1,4-dihydroquinoline-3-carboxylic acid], for which the “effect on [3H]muscimol binding to the GABAA receptor” value in test [1] was “does not act directly on the GABAA receptor”. In test [2], the “anti-anxiety effects, punished responding (number of licks during a 3 minute period)” value was “comparable to that of DZP”. Further, the “interaction with 5α,20α-diol inhibition of [35S]TBPS binding (neurosteroid site)” value in test [3] (10 μM compound 3 or 100 nM 3α,5α-P, rat cortex, FIG. 8) is reported as “does not act directly on the neurosteroid site of the GRC”. For the same compound, in test [3] (30 μM and 100 μM norfloxacin, rat cortex, FIG. 9), the “effect on [35S]TBPS binding in absence or presence of norfloxacin” value is on record as “does not act directly at the same site as the antibacterial quinolone norfloxacin”. Besides, the “effect on [35S]TBPS binding in absence or presence of Ro5-4864 (4′-chlorodiazepam)” value in test [3] (0.3, 1 and 30 μM Ro5-4864, rat cortex, FIG. 11) is on record as “does not act directly at the same site as 4′-chlorodiazepam”. Besides, in test [3] (setting [6]), the “dependence on GABA of the effect on [35S]TBPS binding” value is “absolute dependence of compound 3 on GABA for efficacy”; the “site of action relative to the [35S]TBPS site” value is “allosterically coupled to and does not act directly on the [^35S]TBPS site”. In addition, the “dissociation of [35S]TBPS binding in absence or presence of pentobarbital” value in test [3] (initiated by 10 μM compound 3, 30 μM pentobarbital, rat cortex, FIG. 10) is “do not share a common site of action”. Besides, the “anti-anxiety effects, time spent in the dark” value in test [4] is reported as “comparable to that of DZP”. Besides, the “efficacy on GABA induced currents (IGABA)” value in test [5] is “dose-dependent positive efficacy”.

The record behind these values is US7355047B2, “Substituted quinolone carboxylic acids, their derivatives, site of action, and uses thereof” (The Regents of the University of California, priority 2002, dated 2008).
